Measurements from patent US7622482B2, “Chemical compounds” (AstraZeneca, priority 2005, dated 2009).

Target: T1, human Trk A kinase (Homo sapiens, UniProt P04629)
T1 construct: His; made in house; host or cells: SF9 insect cells
Experiment: Trk A kinase assay (Alphascreen)
Type: biochemical
Details: intracellular domain of HIS-tagged human Trk A, 70 μM ATP, 20 minutes, room temperature, read-out: Trk inhibitory activity IC50
Method: Trk A kinase activity was measured for its ability to phosphorylate synthetic tyrosine residues within a generic polypeptide substrate using an Amplified Luminescent Proximity Assay (Alphascreen) technology (PerkinElmer, 549 Albany Street, Boston, Mass.).
To measure Trk A kinase activity, the intracellular domain of a HIS-tagged human Trk A kinase (amino acids 442-796 of Trk A, Swiss-Prot Primary Accession Number P04629) was expressed in SF9 cells and purified using standard nickel column chromatography. After incubation of the kinase with a biotinylated substrate and adenosine triphosphate (ATP) for 20 minutes at room temperature, the kinase reaction was stopped by the addition of 30 mM ethylenediaminetetraacetic acid (EDTA). The reaction was performed in 384 well microtitre plates and the reaction products were detected with the addition of strepavidin coated Donor Beads and phosphotyrosine-specific antibodies coated Acceptor Beads using the EnVision Multilabel Plate Reader after an overnight incubation at room temperature.

T1 sequence (P04629 442-796): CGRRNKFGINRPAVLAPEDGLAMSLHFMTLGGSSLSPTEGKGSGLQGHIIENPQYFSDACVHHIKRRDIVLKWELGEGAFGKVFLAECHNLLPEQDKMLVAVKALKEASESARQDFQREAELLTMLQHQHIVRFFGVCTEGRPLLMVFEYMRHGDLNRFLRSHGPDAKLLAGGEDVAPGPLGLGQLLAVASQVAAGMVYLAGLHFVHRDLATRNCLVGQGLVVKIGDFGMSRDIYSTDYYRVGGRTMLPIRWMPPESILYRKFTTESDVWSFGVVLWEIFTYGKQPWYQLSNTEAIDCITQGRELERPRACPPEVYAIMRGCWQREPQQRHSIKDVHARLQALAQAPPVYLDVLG

Row | Structure (SMILES) | IC50 [nM]
1 | CC(C)Oc1cc(Nc2ncc3ncn([C@@H](C)c4ccc(F)cc4)c3n2)n[nH]1 [Example 5, 9-[(1S)-1-(4-Fluorophenyl)ethyl]-N-(5-isopropoxy-1H-pyrazol-3-yl)-9H-purin-2-amine] | 63
2 | C[C@@H](c1ccc(F)cc1)n1cnc2ccc(Nc3cc(C4CC4)[nH]n3)nc21 [Example 6, (S)—N-(5-Cyclopronyl-1H-pyrazol-3-yl)-3-(1-(4-fluorophenyl)ethyl)-3H-imidazo[4,5-b]pyridin-5-amine] | 49
3 | Fc1ccc(Cn2cnc3cc(Cl)c(Nc4cc(C5CC5)[nH]n4)nc32)cc1 [Example 18, 3-(4-Fluorobenzyl)-6-chloro-N-(5-cyclopropyl-1H-pyrazol-3-yl)-3H-imidazo[4,5-b]pyridin-5-amine] | 11
